What is called inhibition is the change of the read-out against control, counted positive when it falls.

Molecules are shown by their SMILES. Activity calls are given as the source filed them.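 How the source made its calls: active means Change of at least 30% in epidermal growth factor receptor protein level versus solvent-only controls, drop or rise; inactive means receptor level change under 30% either way.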

This assay relates to HCT116 EGFR protein level, western blot, 24 h. The assay is described as follows: EGFR protein lowering in cells – cell-based, HCT116 colorectal carcinoma, chemiluminescent western blot, counter-screen for KLF5 inhibitor project, late-stage follow-up (AID 588648). The settings on record: at 10 µM; for inhibition: stronger effect = higher value; for fold change: measured here: EGFR band fold change vs DMSO.

Consider `CN(C(=O)CNC(=O)/C=C/c1cccc(Cl)c1)C1CCS(=O)(=O)C1` (stereo unspecified), for which the inhibition is 10.3% (inactive) and the fold change is -1.11.

For `CN(C(=O)CNC(=O)/C=C/c1cccc(Cl)c1)C1CCS(=O)(=O)CC1`, the inhibition is 12.7% (inactive) and the fold change is -1.15.

In the case of `CN(C(=O)COC(=O)/C=C/c1cccc([N+](=O)[O-])c1)C1CCS(=O)(=O)C1` (stereo unspecified), the inhibition was 1.68% (inactive) and the fold change was -1.02.

The values above are taken from PubChem BioAssay AID588648 (The Scripps Research Institute Molecular Screening Center, 2011).
